Several values for one entry are separate records, joined by “and”; a condition that tells them apart may be missing. Equal values may be shown once.
System: Schweißsekretion
Experiment: Imprint method: sweat reduction on the inner forearm after topical application for several days, sauna sweating, silicone imprint with image analysis
Format: in vivo, menschlichen Probanden
Excerpt: Der Nachweis der Wirksamkeit wurde an menschlichen Probanden mit Hilfe der sogenannten "Imprintmethode" geführt. Bei dieser Methode wird das zu untersuchende Material am Unterarm innen mehrere Tage hintereinander (topisch) angewendet, sodann begeben sich die Probanden in die Sauna zum Schwitzen. An der Untersuchungsstelle wird eine Silikonmasse aufgetragen, die während der Schwitzphase aushärtet. An den Stellen, an denen Schweisströpfchen austreten, bilden sich Abdrücke in der Silikonmasse, welche bildanalytisch ausgewertet werden können. Nach diesem Verfahren wurden zunächst die Wirkstoffe in wäßriger Lösung untersucht und sodann entsprechende kosmetische Zubereitungen.
Es wurden wässrige Lösungen aus Mecetroniumethylsulfat (MES) hergestellt und an 15 Probanden die Schweissreduktion mit Hilfe der Imprint-Methode am inneren Unterarm geprüft. Zum Vergleich wurde eine 10 %ige Aluminiumchlorhydrat-Lösung verwendet

| Compound | Reduktion der Schweißsekretion (in vivo) | Reduktion der Schweißsekretion (10 %ige comparison solution, 15 Probanden, inner forearm) [%] |
| --- | --- | --- |
| CCCCCCCCCCCCCCCC[N+](C)(C)CC [MES, N-Hexadecyl-N-ethyl-N,N-dimethylammoniumethylsulfat] | 93% and 95% |  |
| Aluminiumchlorhydrat |  | 93 |

— patent EP1027880A2, “Use of quaternary ammonium compounds as antiperspirants” (Beiersdorf Aktiengesellschaft, priority 1999, dated 2000)
